One assay has as its system right atrium. Nature of the assay: Action to heart of guinea pig: right atrium (pulsations).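 On Pulsation: Dash means no recognizable influence on pulsation rate.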 Also on record: species or system Hartley guinea pigs. The following applies: for inhibition at 10 µM / inhibition at 100 µM: Cavia porcellus, read-out: Pulsation. The method, then: (§1) Hartley guinea pigs (body weight of 300-400 g) were rendered unconscious by knocking their head and fixed upwardly to exenterate their heart. […] The vessel was previously filled with the Krebs-Henseleit solution and the said mixed gas was continuously fed therein.
(§2) Samples were prepared by separating from a ventricular muscle a right and left atrium, along an auricloventricular furrow or groove from the center-line of the right and left auricles.
A contraction of the sample, due to a compound to be tested, was recorded through an FD pick-up. Concurrently, pulsations were input to a measuring unit to count and record number of the pulsations.

Another assay has as its system left atrium. The experiment in a line: Action to heart of guinea pig: left atrium (contraction power). Also on record: species or system Hartley guinea pigs. The conditions noted are these: for Contraction: 10^-5 (M). The procedure:
as §1, §2
The atrium was driven by contacting it with a platinum bipolar electrode attached to the cellfin and by stimulating the same with a rectangular pulse (1 Hz, 1 msec, 10 V). A movement of the sample was recorded by connecting the sample to a recorder through a silk thread and a FD pick-up.

The test system of the next assay is platelet. Nature of the assay: Inhibition of platelet agglutination (rat PRP). The conditions noted are these: agglutination caused by collagen, read-out: IC50 Collagen. In kind it is cell-based. The method, then: A blood was taken from a descending aorta of the rat anesthetized with ethyl ether. To the blood, 3.8% aqueous sodium citrate was added by a volume of 1/3 and the resulting solution was centrifuged (1500 rpm) at 4° C. for 10 minutes to obtain a supernatant which was designated as "PRP (platelet rich plasma)". The remaining residue was centrifuged (3000 rpm) at 4° C. for 10 minutes to obtain a supernatant which was designated as "PPP (platelet poor plasma)". A stirrer bar and PRP (267 μl) were inserted in a cell and PPP (more than 300 μl) was charged in another cell. A transmissivity to PRP and PPP was measured and set as "0%" for the former case and as "100%" for the latter case.
After a preincubation for 1 minute, a compound to be tested was added by 3 μl and then an agglutination causing substance (collagen or ADP) was added by 30 μl at a time lapsed of 1 minute from the addition of testing compound. For a control group, 3 μl of dimethylsulfoxide was added, instead of the testing compound. A maximum value in transmissivity change after the addition of agglutination causing substance was determined and made as a platelet agglutination rate (%).

A further assay deals with thoracic aorta. Nature of the assay: Action to the aorta of guinea pig (relaxation of contracted spiral samples). Also noted: species or system Hartley guinea pigs. The conditions noted are these: Cavia porcellus. An excerpt:
Hartley guinea pigs (body weight of 300-500 g) were rendered unconscious fainted by knocking their head and fixed upwardly. A thoracic aorta was taken out to prepare spiral samples, each having size of about 2×25 mm. The sample was suspended in a Magnus tube under a load of about 1 g and upper end of the sample was connected through a silk thread to a FD pick-up to record a change in isometric tension.
Composition of Krebs-Henseleit solution:
Prior to the experiment, the sample in the Magnus tube was left to stand, as it was, for 60 to 90 minutes and in such period of time, the Krebs-Henseleit solution was exchanged to fresh one at an interval of 20 to 30 minutes.
When the contraction of the sample became constant, the compound to be tested was gradually added in a amount starting at a concentration of 10^-8, to […] to observe the contraction of the sample. Finally, papaverine was added therein, so as to make its final concentration of 2×10^-5 g/ml, to check and record also the relaxing reaction or atony caused by the papaverine.

The target of a further assay is aldose reductase (Rattus norvegicus, UniProt P07943). The experiment in a line: Inhibition to aldose reductase (method of Kador et al). In kind it is biochemical. The conditions noted are these: read-out: IC50 (50% Inhibitory Concentration). An excerpt:
An ability for reducing or inhibiting activity of aldose reductase was checked, in accordance with the method of Kador et al as described in "Biophys.

Setting [1] is: Cavia porcellus, read-out: Contraction.
[2] abbreviates: 10^-4 (M), right atrium, 32°±1° C.
Where [3] appears, read: 10^-5 (M), right atrium, 32°±1° C.
Where [4] appears, read: Cavia porcellus, 10^-4 (M), left atrium, 32°±1° C., read-out: Contraction.
[5] abbreviates: contraction by KCl 2.5×10^-2 M, 37° C., read-out: IC50 KCl contraction (50% relaxing).
The mark [6] stands for this setting: contraction by norepinephrine 10^-6 g/ml, 37° C., read-out: IC50 N.E. contraction (50% relaxing).

Data on 17 molecules can be found in patent US5164391A, “Hydantoin derivatives for treating complications of diabetes and circulatory diseases” (priority 1989, dated 1992).

Where two headings read alike, the source gives them in different places. Where only a bound is given, the exact number is not on record here.

`CC(C)NCC(O)COc1cccc2ccccc12` (stereo not drawn) [A, Propranolol, reference compound]: in the assay with right atrium, the inhibition at 10 µM was greater than 20% and the inhibition at 100 µM is greater than 20%. For the same molecule, in the assay with left atrium (setting [1]), the inhibition at 10 µM is greater than 20% and the inhibition at 100 µM was greater than 20%.

Regarding `CC(=O)Oc1ccccc1C(=O)O` [Aspirin, reference compound], the IC50 in the assay with platelet came to 210 µM.

Consider `CC(C(O)c1ccc(O)cc1)N1CCC(Cc2ccccc2)CC1` (stereo not drawn) [B, Ifenprodil, reference compound], for which the values for the inhibition at 100 µM in the assay on right atrium (setting [2]) and in the assay with left atrium (setting [4]) were greater than 20% and 10 to 20%, respectively. The inhibition at 10 µM in the assay with right atrium (setting [3]) was greater than 20%. Moreover, in the assay with left atrium (left atrium, 32°±1° C.), the Contraction entry is “-”.

As to `COc1cc(/C=C/C(=O)N2CCN(CC(=O)N3CCCC3)CC2)cc(OC)c1OC` [Cinepazide, reference compound], the IC50 in the assay with thoracic aorta (read-out: IC50 KCl contraction (50% relaxing)) was determined as 2000 µM; in the assay on thoracic aorta (read-out: IC50 N.E. contraction (50% relaxing)), 1000 µM.

Take `NNC(=O)[C@@H]1C[C@]2(NC(=O)NC2=O)c2cc(F)ccc2O1` [Example 1, (2S,4S)-6-Fluoro-2',5'-dioxospiro[chroman-4,4'-imidazolidine]-2-carbohydrazide]: the IC50 stood at 0.038 µM at aldose reductase, 95 µM with thoracic aorta (setting [5]) and 2 µM with thoracic aorta (setting [6]).

For the molecule `CNNC(=O)[C@@H]1C[C@]2(NC(=O)NC2=O)c2cc(F)ccc2O1` [Example 2, (2S,4S)-6-Fluoro-2',5'-dioxospiro[chroman-4,4'-imidazolidine]-2-(N'-methyl)carbohydrazide], the IC50 on aldose reductase was 0.3 µM; in the assay with thoracic aorta (setting [5]) it was greater than 1000 µM; with thoracic aorta (setting [6]), greater than 1000 µM.

Regarding `O=C1NC(=O)[C@@]2(C[C@@H](C(=O)NNc3ccccc3)Oc3ccc(F)cc32)N1` [Example 3, (2S,4S)-6-Fluoro-2',5'-dioxospiro[chroman-4,4'-imidazolidine]-2-(N'-phenyl)carbohydrazide], the IC50 on aldose reductase was found to be 0.022 µM; in the assay with platelet, 140 µM; in the assay with thoracic aorta (setting [5]), 30 µM; in the assay with thoracic aorta (setting [6]), 0.8 µM. For the same molecule, the Pulsation entry with right atrium (setting [2]) and in the assay with right atrium (setting [3]) was “-” throughout. For the same molecule, the Contraction result with left atrium (left atrium, 32°±1° C.) is listed as “-”. Also, in the assay with left atrium (setting [4]), the inhibition at 100 µM was in the range of 10 to 20%.

For `O=C1NC(=O)[C@@]2(C[C@@H](C(=O)NNc3ccc(Cl)cc3)Oc3ccc(F)cc32)N1` [Example 4, (2S,4S)-6-Fluoro-2',5'-dioxospiro[chroman-4,4'-imidazolidine]-2-(N'-4-chlorophenyl)carbohydrazide], the IC50 at aldose reductase was 0.026 µM; with platelet it was 180 µM; with thoracic aorta (setting [5]), greater than 1000 µM; in the assay on thoracic aorta (setting [6]) it was greater than 1000 µM. For the same molecule, the Pulsation result in the assay on right atrium (setting [3]) is “-”. Moreover, the inhibition at 100 µM in the assay with right atrium (setting [2]) and with left atrium (setting [4]) was 10 to 20% each time. In the assay on left atrium (left atrium, 32°±1° C.), the Contraction entry was “-”.

Consider `COc1ccc(NNC(=O)[C@@H]2C[C@]3(NC(=O)NC3=O)c3cc(F)ccc3O2)cc1` [Example 5, (2S,4S)-6-Fluoro-2',5'-dioxospiro[chroman-4,4'-imidazolidine]-2-(N'-4-methoxyphenyl)carbohydrazide], for which the IC50 on aldose reductase came to 0.044 µM; in the assay with platelet, 26 µM; in the assay on thoracic aorta (setting [5]), 5 µM; in the assay on thoracic aorta (setting [6]) it was 30 µM. The Pulsation entry with right atrium (setting [2]) and in the assay with right atrium (setting [3]) was “-” each time. Also, the Contraction result in the assay with left atrium (left atrium, 32°±1° C.) was “-”. Also, the inhibition at 100 µM in the assay with left atrium (setting [4]) was in the range of 10 to 20%.

For the molecule `O=C1NC(=O)[C@@]2(C[C@@H](C(=O)NNc3cccc4ccccc34)Oc3ccc(F)cc32)N1` [Example 6, (2S,4S)-6-Fluoro-2',5'-dioxospiro[chroman-4,4'-imidazolidine]-2-(N'-1-naphthyl)carbohydrazide], the results for the IC50 at aldose reductase and in the assay on platelet were 0.013 µM and 230 µM, respectively. The Pulsation result in the assay on right atrium (setting [3]) was “-”. Also, the inhibition at 100 µM with right atrium (setting [2]) and with left atrium (setting [4]) was 10 to 20% each time. Also, the Contraction entry with left atrium (left atrium, 32°±1° C.) is reported as “-”.

With `O=C1NC(=O)[C@@]2(C[C@@H](C(=O)NO)Oc3ccc(F)cc32)N1` [Example 7, (2S,4S)-6-Fluoro-2',5'-dioxospiro[chroman-4,4'-imidazolidine]-2-hydroxamic acid], the IC50 at aldose reductase was 0.037 µM; in the assay with thoracic aorta (setting [5]) it was greater than 1000 µM; with thoracic aorta (setting [6]), greater than 1000 µM.

Take `O=C1NC(=O)[C@@]2(C[C@@H](C(=O)NCCN3CCN(CC=Cc4ccccc4)CC3)Oc3ccc(F)cc32)N1` [Example 8, (2S,4S)-N-[2-(4-Cinnamylpiperazin-1-yl)ethyl]-6-fluoro-2',5'-dioxospiro[chroman-4,4'-imidazolidine]-2-carboxamide]: the IC50 at aldose reductase is 0.22 µM; in the assay on platelet, 250 µM; in the assay on thoracic aorta (setting [5]), greater than 1000 µM; in the assay with thoracic aorta (setting [6]), greater than 1000 µM. Moreover, the Pulsation result in the assay with right atrium (setting [3]) is “-”. In addition, the inhibition at 100 µM with right atrium (setting [2]) and in the assay on left atrium (setting [4]) was 10 to 20% each time. The Contraction entry in the assay with left atrium (left atrium, 32°±1° C.) is recorded as “-”.

Take `COc1ccccc1N1CCN(CCNC(=O)[C@@H]2C[C@]3(NC(=O)NC3=O)c3cc(F)ccc3O2)CC1` [Example 9, (2S,4S)-N-{2-[4-(2-Methoxyphenyl)piperazin-1-yl]ethyl}-6-fluoro-2',5'-dioxospiro[chroman-4,4'-imidazolidine]-2-carboxamide]: the IC50 on aldose reductase was 0.24 µM; in the assay with platelet it was 660 µM; with thoracic aorta (setting [5]), greater than 1000 µM; in the assay with thoracic aorta (setting [6]) it was greater than 1000 µM. Moreover, the Pulsation entry with right atrium (setting [2]) and with right atrium (setting [3]) was “-” in each case. Besides, the Contraction entry with left atrium (left atrium, 32°±1° C.) is reported as “-”. Besides, in the assay with left atrium (setting [4]), the inhibition at 100 µM is 10 to 20%.

In the case of `COc1cc(C=CC(=O)N2CCN(CCNC(=O)[C@@H]3C[C@]4(NC(=O)NC4=O)c4cc(F)ccc4O3)CC2)cc(OC)c1OC` [Example 12, (2S,4S)-N-{2-[4-(3,4,5-Trimethoxycinnamoyl)piperazin-1-yl]ethyl}-6-fluoro-2',5'-dioxospiro[chroman-4,4'-imidazolidine]-2-carboxamide], the IC50 on aldose reductase came to 0.15 µM; in the assay on thoracic aorta (setting [5]), 160 µM; in the assay with thoracic aorta (setting [6]), 30 µM. The Pulsation entry in the assay with right atrium (setting [2]) and with right atrium (setting [3]) was “-” each time. Besides, the Contraction result with left atrium (left atrium, 32°±1° C.) is on record as “-”. Further, in the assay with left atrium (setting [4]), the inhibition at 100 µM lay in the range of 10 to 20%.

Turning to `O=C1NC(=O)[C@@]2(C[C@@H](C(=O)NCCO[N+](=O)[O-])Oc3ccc(F)cc32)N1` [Example 13, (2S, 4S)-N-(2-Nitroxyethyl)-6-fluoro-2',5'-dioxospiro[chroman-4,4'-imidazolidine]-2-carboxamide], the IC50 at aldose reductase came out at 0.19 µM; in the assay on platelet, 240 µM; in the assay with thoracic aorta (setting [5]) it was 60 µM; with thoracic aorta (setting [6]), 20 µM.

With `O=C1NC(=O)[C@@]2(C[C@@H](C(=O)NCCn3ccnc3)Oc3ccc(F)cc32)N1` [Example 14, (2S,4S)-N-{2-[(Imidazol-1-yl)ethyl]}-6-fluoro-2',5'-dioxospiro[chroman-4,4'-imidazolidine]-2-carboxamide], the results for the IC50 at aldose reductase, in the assay on thoracic aorta (setting [5]) and in the assay on thoracic aorta (setting [6]) were 0.65 µM, greater than 1000 µM and greater than 1000 µM, respectively.

Regarding `COc1ccc2c(c1)c(CC(=O)O)c(C)n2C(=O)c1ccc(Cl)cc1` [Indomethacin, reference compound], the IC50 in the assay on platelet is 68 µM.
